Measured values from US8492588B2, “Benzyloxy anilide derivatives useful as potassium channel modulators” (Valeant Pharmaceuticals International, priority 2008, dated 2013).
pEC50: −log10 of the molar value.

molecular target: T1, KCNQ2/3 heteromultimers (Rattus norvegicus, UniProt O88943+O88944); assay: Rubidium (Rb+) efflux test in PC-12 cells; type: cell-based; settings: NGF-differentiated PC-12 cells, depolarization buffer 15 mM KCl, 10 min
T1 construct: endogenous in cells; host or cells: PC-12 cells differentiated with NGF-7s; no transfection is described
Method: Compounds of this invention formula were evaluated for activity toward potassium channels in a cell-based Rb^+ efflux assay. This cellular bioassay is believed to faithfully represent the M current channel activities identified with KCNQ2/3 heteromultimers. […] Additionally, antiseizure activity in vivo was evaluated in a mouse maximal electroshock seizure (MES) model, and neurotoxicities were determined from a rotorod neurocognitive motor impairment model.
PC-12 cells were grown at 37° C. and 5% CO2 in DMEM/F12 Medium (Dulbecco's Modified Eagle Medium with Nutrient Mix F-12, available from Invitrogen of Carlsbad, Calif.), supplemented with 10% horse serum, 5% fetal bovine serum, 2 mM glutamine, 100 U/ml penicillin, and […] streptomycin. They were plated in poly-D-lysine-coated 96-well cell culture microplates at a density of 40,000 cells/well and differentiated with 100 ng/ml NGF-7s for 2-5 days. For the assay, the medium was aspirated, and the cells were washed once with 0.2 ml in wash buffer (25 mM HEPES, pH 7.4, 150 mM NaCl, 1 mM MgCl2; 0.8 mM NaH2PO4, 2 mM CaCl2). The cells were then loaded with 0.2 ml Rh^+ loading buffer (wash buffer plus 5.4 mM […], 5 mM glucose) and incubated at 37° C. for 2 h. Attached cells were quickly washed three times with buffer (same as Rb^+ loading buffer, but containing 5.4 mM KCl instead of RbCl) to remove extracellular Rb^+. Immediately following the wash, 0.2 ml of depolarization buffer (wash buffer plus 15 mM KCl) with or without compounds was added to the cells to activate efflux of potassium ion channels. After incubation for 10 min at room temperature, the supernatant was carefully removed and collected. Cells were lysed by the addition of 0.2 ml of lysis buffer (depolarization buffer plus 0.1% Triton X-100) and the cell lysates were also collected. If collected samples were not immediately analyzed for Rb^+ contents by atomic absorption spectroscopy (see below), they were stored at 4° C. without any negative effects on subsequent Rb^+ analysis.
The concentrations of Rb^+ in the supernatants (Rb^+Sup) and the cell lysates (Rb^+Lys) were quantified using an ICR8000 flame atomic absorption spectrometer (Aurora Biomed Inc., Vancouver, B.C.) under conditions defined by the manufacturer. Samples 0.05 ml in volume were processed automatically from microtiter plates by dilution with an equal volume of Rb^+ sample analysis buffer and injection into an air-acetylene flame. The amount of Rb^+ in the sample was measured by absorption at 780 nm using a hollow cathode lamp as light source and a PMT detector. A calibration curve covering the range 0-5 mg/L Rb^+ in sample analysis buffer was generated with each set of plates. The percent Rb^+ efflux (F) was defined by F=[Rb^+Sup/(Rb^+Sup+Rb^+Lys)]×100%. wherein the Fc is the efflux in the presence of compound in depolarization buffer, Fb is the efflux in basal buffer, and Fs is the efflux in depolarization buffer, […]. The efflux (F) and compound concentration relationship was plotted to calculate an EC50 value, a compound's concentration for 50% of maximal RV efflux. Maximal Electroshock Seizure (MES) and Acute Toxicity Tests MES Test

SMILES	pEC50
Cc1cc(OCc2ccc(F)c(F)c2)cc(C)c1NC(=O)CCC1CCCC1	8.00 to 9.00
Cc1cc(OCc2ccc(F)c(F)c2)cc(C)c1NC(=O)CC(C)(C)C	7.30 to 8.00
Cc1ccc(COc2cc(C)c(NC(=O)CC(C)(C)C)c(C)c2)cc1	7.30 to 8.00
Cc1cc(OCc2ccc(Cl)cc2)cc(C)c1NC(=O)CC(C)(C)C	7.30 to 8.00
Cc1cc(OCc2ccc(Br)cc2)cc(C)c1NC(=O)CC(C)(C)C	7.30 to 8.00
Cc1cc(OCc2ccc(F)cc2F)cc(C)c1NC(=O)CC(C)(C)C	7.30 to 8.00
Cc1cc(OCc2cccc(Cl)c2)cc(C)c1NC(=O)CC(C)(C)C	7.30 to 8.00
Cc1cc(OCc2cccc(F)c2)cc(C)c1NC(=O)CC(C)(C)C	7.30 to 8.00

Next, values leading:

pEC50	SMILES
6.30 to 7.30	CCOC(=O)Nc1ccc(OCc2ccc(F)cc2)cc1
6.30 to 7.30	CCOC(=O)Nc1ccc(OCc2ccc(F)cc2)cc1F
6.30 to 7.30	CCOC(=O)Nc1ccc(OCc2ccc(F)cc2)cc1C
6.30 to 7.30	CCOC(=O)Nc1ccc(OCc2ccc(F)cc2)cc1C(F)(F)F
8.00 to 9.00	Cc1cc(OCc2ccc(F)cc2)cc(C)c1NC(=O)CCC1CCCC1
7.30 to 8.00	Cc1cc(OCc2ccc(F)cc2)cc(C)c1NC(=O)CC(C)(C)C
7.30 to 8.00	Cc1cc(OCc2cccc(C(F)(F)F)c2)cc(C)c1NC(=O)CC(C)(C)C
6.30 to 7.30	Cc1cc(OCc2ccccc2C(F)(F)F)cc(C)c1NC(=O)CC(C)(C)C
7.30 to 8.00	Cc1cc(OCc2ccc(C(F)(F)F)cc2)cc(C)c1NC(=O)CC(C)(C)C
